Test results taken from US10376520B2, “Methods for the treatment of cardiovascular disorders” (Galapagos NV, priority 2015, dated 2019).

Assays:
[1] = system: Japanese and Caucasian healthy subjects; experiment: Total cholesterol determination, Study 3 (healthy volunteers); assay type: in vivo, human; details: for [Total cholesterol] % Mean % variation vs baseline 10 days: 200 mg q.d.; for [Total cholesterol] levels: Study 3
Procedure: Randomized, double-blind, placebo-controlled study for the assessment of safety, tolerability, pharmacokinetics, and pharmacodynamics, of multiple oral doses of Compound 1 (dosed as a [Compound 1:HCl:3H2O]) in Japanese and Caucasian healthy subjects.
Randomized, double-blind, placebo-controlled, single center, sequential design study.
Compound 1 (dosed as a [Compound 1:HCl:3H2O]) is administered for 10 days as oral film-coated tablet (25 and 100 mg and matching placebos). Placebo are provided as a matching tablet.
The study drug is ingested with 240 mL water after a standardized breakfast on Days 2-9. On PK days (Day 1 and Day 10) the study drug is administered in a fasted state (subjects will receive lunch 4 h after dosing on Day 1 and Day 10).
10 Japanese subjects (6 active, 4 placebo) and 10 Caucasian subjects (6 active, 4 placebo) will receive once daily an oral dose of 200 mg Compound 1 (dosed as a [Compound 1:HCl:3H2O]) or matching placebo as two tablets of 100 mg or matching placebo for 10 days. For practical reasons, these subjects may be split over separate groups, each group consisting of an equal number of Japanese and Caucasian Compound 1 (dosed as a [Compound 1:HCl:3H2O]) treated subjects and Japanese and Caucasian placebo subjects.
This method is based on the determination of Δ^4 cholestenone after enzymatic cleavage of the cholesterol ester by cholesterol esterase, conversion of cholesterol by cholesterol oxidase, and subsequent measurement by the Trinder reaction of the hydrogen peroxide formed (Allain et al., 1974).
Cholesterol esters are cleaved by the action of cholesterol esterase to yield free cholesterol and fatty acids. Cholesterol oxidase then catalyzes the oxidation of cholesterol to cholest-4-en-3-one and hydrogen peroxide. In the presence of peroxidase, the hydrogen peroxide formed effects the oxidative coupling of phenol and 4-aminophenazone to form a red quinone-imine dye. The color intensity of the dye formed is directly proportional to the cholesterol concentration. It is determined by measuring the increase in absorbance.
Human serum and plasma samples cholesterol determination was done on a Roche/Hitachi Cobas c 701/702 system which automatically calculate the analyte concentration of each sample.

[2] = system: RA patients; experiment: Triglycerides level (Selectra autoanalyzer), Study 4; assay type: in vivo, human; details: for Triglycerides level, 4 weeks CFB: 4 weeks change from baseline
Procedure: Randomized double-blind, placebo-controlled add on study in subjects with active RA who have an inadequate response to MTX monotherapy, in combination with methotrexate, administered for 4 weeks in the treatment of subjects with active rheumatoid arthritis who have an inadequate response to methotrexate alone.
Compound 1 (dosed as a [Compound 1:HCl:3H2O]) capsules administered orally in 30 mg, 75 mg, 150 mg, or 300 mg doses per day for 4 weeks.
Triglycerides, [HDL] cholesterol, and plasma cholesterol were measured on the Selectra autoanalyzer (Sopachem BV, 44-RI Straat 33, 4051 AP Ochten, The Netherlands). All assays were commercially available from DiaSys Diagnostic Systems GmbH, Alte Strasse 9, 65558 Holzheim, Germany.

For `O=C(Nc1nc2cccc(-c3ccc(CN4CCS(=O)(=O)CC4)cc3)n2n1)C1CC1` [Compound 1, cyclopropanecarboxylic acid {5-[4-(1,1-dioxo-thiomorpholin-4-ylmethyl)-phenyl]-[1,2,4]triazolo[1,5-a]pyridin-2yl}-amide], which “[Total cholesterol] % Mean % variation vs baseline 10 days” value ([1]; Caucasian) is on record?
Its value is −2.6%.

What about the “[Total cholesterol] % Mean % variation vs baseline 10 days” value ([1]; Japanese) of the same compound?
Its value is −0.4%.

What about the “[Total cholesterol] levels” value ([1]; Caucasian 200 mg q.d. for 10 days, day 17) of the same compound?
The value was 4.57 mmol/L.

And the “[Total cholesterol] levels” value ([1]; Caucasian 200 mg q.d., day 0)?
Its value is 4.77 mmol/L.

What about the “[Total cholesterol] levels” value ([1]; Caucasian 200 mg q.d., day 5) of the same compound?
Its value is 4.5 mmol/L.

And the “[Total cholesterol] levels” value ([1]; Caucasian 200 mg q.d., day 10)?
The value was 4.53 mmol/L.

What about the “[Total cholesterol] levels” value ([1]; Japanese 200 mg q.d. for 10 days, day 17) of the same compound?
The value was 4.52 mmol/L.

What about the “[Total cholesterol] levels” value ([1]; Japanese 200 mg q.d., day 0) of the same compound?
The value was 4.47 mmol/L.

And the “[Total cholesterol] levels” value ([1]; Japanese 200 mg q.d., day 5)?
The value was 4.18 mmol/L.

What about the “[Total cholesterol] levels” value ([1]; Japanese 200 mg q.d., day 10) of the same compound?
The value was 4.45 mmol/L.

What about the “Triglycerides level, 4 weeks CFB” value ([2]; 30 mg q.d.) of the same compound?
The value was 51.7%.

What about the Triglycerides level, Baseline ([2]; 30 mg q.d.) of the same compound?
The Triglycerides level, Baseline was 1.2 mM.

What about the Triglycerides level, week 4 ([2]; 30 mg q.d.) of the same compound?
Its Triglycerides level, week 4 is 1.7 mM.

And the “Triglycerides level, 4 weeks CFB” value ([2]; 75 mg q.d.)?
Its value is 6.6%.

And the Triglycerides level, Baseline ([2]; 75 mg q.d.)?
The Triglycerides level, Baseline was 1 mM.

What about the Triglycerides level, week 4 ([2]; 75 mg q.d.) of the same compound?
The Triglycerides level, week 4 was 1.1 mM.

What about the “Triglycerides level, 4 weeks CFB” value ([2]; 150 mg q.d.) of the same compound?
Its value is 93.6%.

And the Triglycerides level, Baseline ([2]; 150 mg q.d.)?
The Triglycerides level, Baseline was 1.4 mM.

And the Triglycerides level, week 4 ([2]; 150 mg q.d.)?
Its Triglycerides level, week 4 is 2.1 mM.

What about the “Triglycerides level, 4 weeks CFB” value ([2]; 300 mg q.d.) of the same compound?
Its value is 23.3%.

What about the Triglycerides level, Baseline ([2]; 300 mg q.d.) of the same compound?
The Triglycerides level, Baseline was 1.3 mM.

And the Triglycerides level, week 4 ([2]; 300 mg q.d.)?
The Triglycerides level, week 4 was 1.4 mM.
